Laboratory results: patent US4691017A, “2-hydroxy-and 2-halo-ethylthiopyridine intermediates for preparing antiulcer compounds” (Richter Gedeon Vegyeszeti Gyar Rt., priority 1984, dated 1987)
Counter-ions that a name gives are not always drawn. Like-named read-outs stand apart in the source and are kept apart here.

Assays:
[1] = system: Gastric necrosis (gastric oedema and haemorrhagic injury); assay: Gastric necrosis induced by acidic ethanol (cytoprotective activity); format: in vivo, Female RG-Wistar rats; conditions: for ED50: Rattus norvegicus, po, 1 h, acidic ethanol, p.o.
Description: Water was given ad libitum. […] One hour later the animals were killed by overdosing with ether. Stomachs were removed and opened along the major curvature. After cleaning the wet weight of the stomachs was determined, and the difference between the wet weight obtained and the wet weight of the stomachs of untreated (control) animals was calculated, in order to determine the degree of gastric oedema. The stomachs were then dried and the gastic lesions were observed visually. Lengths of lesions were measured in millimeters. (Derelanko and Long, Proc. Soc. Exp. Biol. and Med. 166, 394 (1981)), and the length of the average lesions per stomach was given. Degree of cytoprotection was expressed in % related to the control. The statistical evaluation of the results was carried out by the Student test.

Intestinal ulcer = assay: Indomethacin-induced intestinal ulceration (inflation technique); format: in vivo, Female RG-Wistar rats
Antral ulcer = assay: Indomethacin-induced antral ulceration; format: in vivo, Female RG-Wistar rats
Description: Indomethacin-induced antral and intestinal ulceration
Female RG-Wistar rats weighing 120 to 150 g. each were fasted for 24 hours. Water was added ad libitum. The animals were then given access to food for one hour, and 30 minutes after the administration of the test compounds a 15-mg./kg. oral dose of indomethacin was administered. 24 hours after indomethacin treatment the animals were killed by overdose of ether. Stomachs and the entire intestine were removed, the stomachs were opened along the main curvature, and the total ulcerated area (ulceration index, mm^2) was determined.

[2] = system: Aspirin-induced gastric ulceration; assay: Inhibition of aspirin-induced gastric ulceration; format: in vivo, Female H. Wistar rats
Description: Inhibition of aspirin-induced gastric ulceration
Female H. Wistar rats weighing 120 to 150 g each were fasted for 24 hours. Water was given ad libitum. The stomach ulcer was induced by oral administration of aspirin in a dose of 100 mg./kg. (in Tween 80 suspension). The test was given simultaneously with the administration of aspirin, orally. The animals were killed by overdose if ether, 4 hours after treatment. The stomach was excised and cut along the large curvature. The red-brownish erosions on the glandular surface were counted. When evaluating the test results, the number of ulcers per stomach and its proportion to the number of ulcers found in the stomachs of control animals (inhibition of ulceration) were determined.

Gastric acid secretion = Gastric acid secretion inhibiting activity on Shay rats; format: in vivo, Female H-Wistar rats
Description: Gastric acid secretion inhibiting activity on Shay rats (Gastroenterology, 5, 43-46 (1945)
Female H-Wistar rats weighing 120-150 g each were fasted for 24 hours. Water was added ad libitum. The pylorus of the animals was ligated under light ether narcosis. The test drugs were administered during the operation, partially orally, partially intraperitoneally. 4 hours after treatment the animals were killed by an overdose of ether. The stomach was excised and cut along the large curvature. The volume and the pH of the contents were determined and in each case the HCl production was determined by titration.

[3] = read-out: Gastric oedema inhibition ED50
[4] = read-out: Haemorrhagic injury inhibition ED50
[5] = indomethacin 15 mg./kg. p.o. with 50 mg./kg. p.o. test compound
[6] = indomethacin 15 mg./kg. p.o. with 5 mg./kg. p.o. test compound
[7] = indomethacin 15 mg./kg. p.o. with 25 mg./kg. p.o. test compound
[8] = indomethacin 15 mg./kg. p.o. with 25 mg./kg. p.o. test compound, N 20

NCCSc1ncccc1C(=O)c1ccc(Cl)cc1 [C, 2-[(2-aminoethyl)-thio]-3-(p-chlorobenzoyl)-pyridine.HCl]
ED50 [1, 3]: 10 mg/kg | ED50 [1, 4]: 15 mg/kg

CC(=O)N(CCSc1ncccc1C(=O)c1ccccc1)C(C)=O [B, 3-benzoyl-2-{[2-(N,N-diacetylamino)-ethyl]-thio}-pyridine]
ED50 [1, 3]: 1 mg/kg | ED50 [1, 4]: 2 mg/kg

CCCc1cc(C(=O)c2ccccc2)cc(SCCN)n1 [Compound E, 2-[(2-aminoethyl)-thio]-4-benzoyl-6-propylpyridine.2 HCl]
ED50 [1, 3]: 20 mg/kg | ED50 [1, 4]: 25 mg/kg

Cc1ccc(C)c(C(=O)c2cccnc2SCCN)c1 [D, 2-[(2-aminoethyl)-thio]-3-(2,5-dimethylbenzoyl)pyridine.HCl]
ED50 [1, 3]: 10 mg/kg | ED50 [1, 4]: 10 mg/kg

CN/C(=N/CCSCc1nc[nH]c1C)NC#N [cimetidine, reference compound]
Intestinal ulcer, tensile strength 24 hours after indomethacin treatment (Intestinal ulcer; [5]): 161 ± 8 mmHg | Antral ulcer, ulceration index (Antral ulcer; [5]): 14.7 mm^2 /stomach | Antral ulcer, rats having no ulcer (Antral ulcer; indomethacin 15 mg./kg. p.o. with 50 mg./kg. p.o. test compound, N 10): 2 | Haemorrhagic injury ([1]; 25 mg./kg. p.o.): 82 ± 21 mm | Haemorrhagic injury inhibition ([1]; 25 mg./kg. p.o.): 2% | Oedema ([1]; 25 mg./kg. p.o., N 8): 441 ± 82 mg | Haemorrhagic injury ([1]; 100 mg./kg. p.o.): 42 ± 13 mm | Haemorrhagic injury inhibition ([1]; 100 mg./kg. p.o.): 46% | Oedema inhibition ([1]; 100 mg./kg. p.o.): 21% | Oedema ([1]; 100 mg./kg. p.o., N 8): 301 ± 42 mg

NCCSc1ncccc1C(=O)c1ccccc1 [Compound A, 2-[(2-aminoethyl)-thio]-3-benzoyl-pyridine.HCl]
Inhibition (of ulceration) ([2]; aspirin 100 + test compound 1 mg./kg.p.o.): 38% | Ulcer/Stomach ([2]; aspirin 100 + test compound 1 mg./kg.p.o., N 20): 9.4 + 4.1 | Inhibition (of ulceration) ([2]; aspirin 100 + test compound 2 mg./kg.p.o.): 47% | Ulcer/Stomach ([2]; aspirin 100 + test compound 2 mg./kg.p.o., N 10): 8.0 + 3.0 | Inhibition (of ulceration) ([2]; aspirin 100 + test compound 10 mg./kg.p.o.): 76% | Ulcer/Stomach ([2]; aspirin 100 + test compound 10 mg./kg.p.o., N 10): 3.7 + 4.5 | Secretion HCl inhibition (Gastric acid secretion; 5 mg./kg. p.o.): 37% | Secretion HCl/4 hours (Gastric acid secretion; 5 mg./kg. p.o., N 5): 357 ± 35 μmol/100 g body weight | Secretion HCl inhibition (Gastric acid secretion; 6 mg./kg. i.p.): 11% | Secretion HCl/4 hours (Gastric acid secretion; 6 mg./kg. i.p., N 5): 505 ± 29 μmol/100 g body weight | Secretion HCl inhibition (Gastric acid secretion; 10 mg./kg. p.o.): 38% | Secretion HCl/4 hours (Gastric acid secretion; 10 mg./kg. p.o., N 15): 350 ± 38 μmol/100 g body weight | Secretion HCl/4 hours (Gastric acid secretion; 12 mg./kg. i.p., N 10): 200 ± 30 μmol/100 g body weight | Secretion HCl inhibition (Gastric acid secretion; 12 mg./kg. i.p., p < 0.01): 65% | Secretion HCl inhibition (Gastric acid secretion; 20 mg./kg. p.o.): 34% | Secretion HCl/4 hours (Gastric acid secretion; 20 mg./kg. p.o., N 15): 372 ± 40 μmol/100 g body weight | Secretion HCl inhibition (Gastric acid secretion; 25 mg./kg. i.p.): 100% | Secretion HCl/4 hours (Gastric acid secretion; 25 mg./kg. i.p., N 5): 0 μmol/100 g body weight | Secretion HCl/4 hours (Gastric acid secretion; 40 mg./kg. p.o., N 5): 124 ± 27 μmol/100 g body weight | Secretion HCl inhibition (Gastric acid secretion; 40 mg./kg. p.o., p < 0.01): 70% | higher dose at which gastric acid secretion inhibiting activity was observed (relative to gastrocytoprotective dose) (Gastric acid secretion; selectivity of cytoprotection over acid secretion inhibition): about 500 times | Intestinal ulcer, tensile strength 24 hours after indomethacin treatment (Intestinal ulcer; [6]): 162 ± 14 mmHg | Intestinal ulcer, tensile strength 24 hours after indomethacin treatment (Intestinal ulcer; [7]): 198 ± 9 mmHg | Antral ulcer, ulceration index (Antral ulcer; [6]): 18.9 mm^2 /stomach | Antral ulcer, rats having no ulcer (Antral ulcer; indomethacin 15 mg./kg. p.o. with 5 mg./kg. p.o. test compound, N 15): 3 | Antral ulcer, ulceration index (Antral ulcer; [7]): 4.0 mm^2 /stomach | Antral ulcer, rats having no ulcer (Antral ulcer; [8]): 12 | Haemorrhagic injury ([1]; 0.05 mg./kg. p.o.): 48 ± 19 mm | Haemorrhagic injury inhibition ([1]; 0.05 mg./kg. p.o.): 45% | Oedema inhibition ([1]; 0.05 mg./kg. p.o.): 19% | Oedema ([1]; 0.05 mg./kg. p.o., N 8): 307 ± 42 mg | Haemorrhagic injury ([1]; 0.1 mg./kg. p.o.): 38 ± 18 mm | Oedema ([1]; 0.1 mg./kg. p.o., N 10): 209 ± 51 mg | Haemorrhagic injury inhibition ([1]; 0.1 mg./kg. p.o., p < 0.05): 56% | Oedema inhibition ([1]; 0.1 mg./kg. p.o., p < 0.05): 45% | Haemorrhagic injury ([1]; 1.0 mg./kg. p.o.): 5 ± 1.5 mm | Oedema ([1]; 1.0 mg./kg. p.o., N 12): 72 ± 28 mg | Haemorrhagic injury inhibition ([1]; 1.0 mg./kg. p.o., p < 0.01): 96% | Haemorrhagic injury ([1]; 10.0 mg./kg. p.o.): 6 ± 3 mm | Oedema ([1]; 10.0 mg./kg. p.o., N 12): 22 ± 12 mg | Haemorrhagic injury inhibition ([1]; 10.0 mg./kg. p.o., p < 0.01): 94% | Oedema inhibition ([1]; 10.0 mg./kg. p.o., p < 0.01): 95% | ED50 [1, 3]: 0.2 mg/kg | ED50 [1, 4]: 0.1 mg/kg | gastrocytoprotective activity after indomethacin pre-treatment ([1]; indomethacin pre-treatment): not eliminated by indomethacin pre-treatment | gastrocytoprotective activity, selectivity in words ([1]; versus gastric acid secretion inhibition): selective gastrocytoprotective activity

CN1CCN(CC(=O)N2c3ccccc3C(=O)Nc3cccnc32)CC1 [Pirenzepine, reference compound]
Intestinal ulcer, tensile strength 24 hours after indomethacin treatment (Intestinal ulcer; [7]): 152 ± 8 mmHg | Antral ulcer, ulceration index (Antral ulcer; [7]): 12.0 mm^2 /stomach | Antral ulcer, rats having no ulcer (Antral ulcer; [8]): 5
